Data on three compounds can be found in patent US20110263649A1, “CRYSTALLINE FORM OF LENALIDOMIDE AND A PROCESS FOR ITS PREPARATION” (GENERICS [UK] LIMITED, priority 2008, published 2011).

Like-named read-outs stand apart in the source and are kept apart here.

The conditions of series [1]: as disclosed in WO 2005/023192; cited from earlier work.
The nature of series [2]: aqueous solubility of lenalidomide crystalline forms. Conditions: forms prepared and tested by the inventors.
The conditions of series [3]: as indicated in WO 2005/023192; cited from earlier work.

For `Nc1cccc2c1CN(C1CCC(=O)NC1=O)C2=O` (stereo not shown) [form E, lenalidomide], the “weight loss upon storage” value in series [1] is reported as “the greatest weight loss upon storage”.

Consider `Nc1cccc2c1CN(C1CCC(=O)NC1=O)C2=O` (stereo not shown) [novel crystalline form, 3-(4-amino-1-oxo-1,3-dihydro-isoindol-2-yl)-piperidine-2,6-dione], for which the aqueous solubility entry in series [2] was “High solubility in aqueous medium”.

On to `Nc1cccc2c1CN(C1CCC(=O)NC1=O)C2=O` (stereo not shown) [polymorphic mixture, lenalidomide], for which the aqueous solubility result in series [3] is “poorly soluble in water”; in series [2], “poor aqueous solubility”.
